{"source": "patent US10363239B2", "about": "“Method for inhibiting growth of cancer cells” (Pain Therapeutics, Inc., priority 2013, dated 2019)", "assay_type_in_all_cases": "cell-based, human", "key": {"[1]": {"system": "glioblastoma cells (U-87 MG)", "test": "[3H]glucose uptake", "protocol": "(§1) FIG. 1A through FIG. 1M illustrate the effects of various FLNA-binding compounds on glucose uptake in glioblastoma, melanoma, breast and pancreatic cancer cell lines, along with appropriate non-cancerous primary cell controls. Cells were grown in the absence or presence of 0.1-5 nM indicated compounds for 4 days. Following brief washes with PBS, cells were serum-deprived for 4 hours and then incubated in oxygenated Kreb's Ringer containing 0.1 μCi [^3H]glucose for 2 hours under constant oxygenation. The reaction was terminated by removal of the incubation medium, and cells were washed and scraped off to determine the amounts of [^3H]glucose in cells by scintillation spectrometry. […] N=5-6. […] . […] . To determine the effect of Compound C0105 on glucose utilization, the cancer and primary normal cells were plated extremely thinly (10%). Once cells attached, Compound C0105 was added at 0.1, 0.5, 1 or 5 nM in the medium twice daily (6 hours apart) for 4 days. The cells were serum-deprived (glucose deprived) for 2 hours. Cells were then rinsed with 1 ml PBS and glucose uptake was assessed by contacting the cells with [^3H]glucose (0.01 uCi/l ml) in Kreb's Ringer for 2 hours. Cells were then rinsed with 1 ml PBS 3 times, scraped off and their glucose content counted by liquid scintillation spectrophotometry.\n(§2) Both glioblastoma and melanoma cells were plated extremely thinly. Once cells attached, Compound C0105 was added at 0.1, 0.5, 1 and 5 nM, whereas the other compounds were present at 1 and 5 nM in the medium twice daily (6 hours apart) for 4 days. The cells were serum-deprived (glucose deprived) for 2 hours. Cells were then rinsed with 1 ml PBS and glucose uptake was assessed by contacting the cells with [3H]glucose (0.01 uCi/l ml) of Kreb's Ringer for 2 hours. Cells were then rinsed with 1 ml PBS 3 times, scraped off and their glucose contents counted by liquid scintillation spectrophotometry."}, "melanoma cells (A2058)": {"system": "melanoma cells (A2058)", "test": "[3H]glucose uptake", "protocol": "as §1, §2"}, "primary lung fibroblasts": {"system": "primary lung fibroblasts", "test": "[3H]glucose uptake", "conditions": "C0105 0.1-5 nM, other compounds 1 or 5 nM; 4 days", "protocol": "as §1, §2"}, "glioblastoma cells": {"system": "glioblastoma cells", "test": "Glucose deprivation-induced apoptosis markers (cleaved PARP-1, caspase-3) by Western blotting", "conditions": "1 nM; Day 3 and 4", "protocol": ". The resultant cell lysates were size-fractionated on SDS-PAGE and Western blotting with antibodies specific for Cleaved […] (Asp214) and caspase-3 (Asp175). The protein bands were quantified by densitometric scanning. […] . Data are mean±S.E.M. of ratios (FIG. 3B) and % inhibition (FIG. 3C). […] N=5. *p<0.01 compared to Day 0. #p<0.01 compared to vehicle (open bars).\n. The cells were washed with PBS, incubated in 0.1% fetal bovine serum (FBS) for 16 hours and incubated in glucose-free 0.1% FBS-containing medium for up to 4 days in the presence of vehicle or 1 nM Compound C0105. The cells in the entire well were collected by centrifugation. […] The protein concentrations were measured by the Bradford method.\nThe cells were homogenized and the obtained homogenates were centrifuged to remove nucleus and mitochondria. […] The level of apoptotic cell death was determined using Western blotting in 50 μg solubilized cell lysates with antibodies against cleaved PARP-1 (Asp^214) and caspase-3 (Asp^175), both at 1:1000 dilution. […] Bands at the relevant molecular masses of Ki67 and PCNA were quantified by densitometric scan. Membranes were stripped, washed 5× in 0.1% PBST (2 minutes each wash) and the actin content analyzed by immunoblotting using monoclonal anti-actin to illustrate even loading."}, "melanoma cells": {"system": "melanoma cells", "test": "Cell proliferation by cell-cycling markers Ki67 and PCNA (Western blots)", "conditions": "0.1-5 nM; 4 days", "protocol": "The effect of contact with Compound C0105 on cell proliferation was determined by the levels of cell-cycling markers: Ki67 and PCNA (proliferating cell nuclear antigen) using Western blots in human melanoma cells. Cells treated with vehicle and 0.1-5 nM C0105 for 4 days were collected, washed and solubilized (lysed). The resultant cell lysates were size-fractionated on SDS-PAGE and Western blotting to determine the levels of Ki67, PCNA and actin (loading control). The protein bands were quantified using densitometric scanning. […] N=4. *p<0.01 compared to vehicle (open bars).\nTo study the effect of Compound C0105 on PI3K activity, the cancer and primary normal cells were cultured to approximately 60-70% confluency, serum deprived for 4 hours, briefly washed with PBS and treated with vehicle or 0.1, 0.5, 1 or 5 nM Compound C0105 for 24 hours with in 0.1% FBS-containing culture medium. The cells were then washed with PBS, scraped off and collected by centrifugation. The cell pellets were sonicated in ice-cold immunoprecipitation buffer and protein concentrations measured by the Bradford method. […]\nImmunoreactivity was visualized by reaction in ECL Plus chemiluminescent reagent for exactly 5 minutes, followed by immediate exposure of the blot to X-ray film (Z & Z Medical). Bands at the relevant molecular masses of Ki67 and PCNA were quantified by densitometric scan. […]"}, "[2]": {"conditions": "C0105 0.1-5 nM, other compounds 1 and 5 nM, twice daily for 4 days"}}}
{"compound": "CN1CCC2(CC1)NCC(=O)N2Cc1ccccc1", "note": "[Compound C0105]", "values": [{"measurement": "Reduction of glucose uptake", "setting": "[1]; 0.1 nM, 4 days", "result": 25, "unit": "%"}, {"measurement": "Inhibition of glucose uptake, maximal effect", "setting": "[1]; 1 nM, 4 days", "result": 50, "unit": "%"}, {"measurement": "EC50", "setting": "[1]; 4 days, read-out: EC50, inhibition of glucose uptake", "result": "~0.1", "unit": "nM"}, {"measurement": "Glucose utilization", "setting": "[1]; [2]", "result": "decreased the elevated glucose utilization"}, {"measurement": "Inhibition of glucose uptake", "setting": "melanoma cells (A2058); 0.1-5 nM, not dose-dependent", "result": "about 25%"}, {"measurement": "Glucose utilization", "setting": "melanoma cells (A2058); [2]", "result": "decreased the elevated glucose utilization"}, {"measurement": "Glucose uptake / glucose content", "setting": "primary lung fibroblasts", "result": "not changed"}, {"measurement": "Glucose deprivation-induced cell death by cleaved PARP-1 and caspase-3", "setting": "glioblastoma cells", "result": "attenuates glucose deprivation-induced cell death"}, {"measurement": "Cell proliferation (Ki67 and PCNA levels)", "setting": "melanoma cells", "result": "reduces cell proliferation"}]}
